From article PMC8141533, “Structural and biochemical analysis of human ADP-ribosyl-acceptor hydrolase 3 reveals the basis of metal selectivity and different roles for the two magnesium ions” (The Journal of Biological Chemistry, 2021)
Changes are numbered by the printed parent chain. “Also recorded” adds a separate entry of the source. Blank lines part the entries; values can stand above or below the molecule they belong to.

Tests used:
[1] = target: T1, ARH3 (Homo sapiens, UniProt Q9NX46); assay: Gel-based PAR turnover assay (PARylated PARP1C substrate); assay type: biochemical; settings: for effect on PAR hydrolysis by ARH3: WT ARH3 2 μM, 5 mM EDTA or Ca^2+, PARylated PARP1C, 1 h, 37 °C
T1 construct: we determined the structure of full-length ARH3 in complex with ADPR and Ca^2+; made in house
T1 sequence (Q9NX46 1-363): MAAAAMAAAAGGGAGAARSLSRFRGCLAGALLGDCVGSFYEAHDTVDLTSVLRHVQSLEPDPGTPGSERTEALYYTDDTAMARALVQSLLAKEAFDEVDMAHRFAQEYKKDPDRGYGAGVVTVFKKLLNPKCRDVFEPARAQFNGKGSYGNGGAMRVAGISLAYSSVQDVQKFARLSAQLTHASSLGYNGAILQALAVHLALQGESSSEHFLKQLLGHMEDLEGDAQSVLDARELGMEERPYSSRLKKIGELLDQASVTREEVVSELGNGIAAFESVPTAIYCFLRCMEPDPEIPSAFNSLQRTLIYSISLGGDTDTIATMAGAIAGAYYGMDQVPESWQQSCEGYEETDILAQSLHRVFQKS
Description: A gel-based PAR-turnover assay was performed to evaluate the enzymatic activity of ARH3^WT, ARH3^D77A, ARH3^D78A, ARH3^D314A, and ARH3^D316A, as described previously ([14], [40]). Briefly, 2 μM of the catalytic domain of human PARP1 (PARP1C; residues 375–1014) was auto-PARylated at 37 °C for 30 min in the presence of 2 μM DBD of PARP1 (residues 1–374), 2 μM double-stranded DNA, and 400 μM β-NAD^+ (Sigma) in a buffer containing 100 mM NaCl, 50 mM Tris (pH 7.5), 10 mM MgCl2, and 2 mM DTT. ARH3 proteins (in the presence of 5 mM EDTA, Mg^2+, or Ca^2+) with final concentrations of 2 μM were mixed with the PARylated PARP1C substrate, followed by incubation for 1 h in 37 °C. Reactions then were stopped by adding 4× SDS-loading dye (Bio-Rad) and visualized by Coomassie blue staining of SDS-polyacrylamide gels.

[2] = target: T2, ARH3^WT (Homo sapiens, UniProt Q9NX46); assay: Isothermal titration calorimetry (ITC) of ADPR binding to ARH3^WT; settings: for Kd / N (sites) / ΔG / ΔH / −TΔS: 25 °C, pH 7.5
T2 construct: we determined the structure of full-length ARH3 in complex with ADPR and Ca^2+; made in house
T2 sequence (Q9NX46 1-363): T1 sequence (Q9NX46 1-363)
Description: (§1) ITC experiments were performed at 25 °C in a buffer containing 150 mM NaCl, 100 mM Tris at pH 7.5, and 5 mM divalent metals (MgCl2, MnCl2, and CaCl2) or EDTA (Sigma–Aldrich). The WT or mutants of ARH3 were placed in a cell at 50 μM concentration, and ADPR was placed in the injection syringe at 660 μM concentration. Overall, 26 injections (10 μl per injection except for the first sample [5 μl]) were administered with an interval of 5 min between peaks to allow the baseline to be stabilized. […] The obtained plots were fitted with a single-site binding model in the Origin software package (MicroCal, Inc).

[3] = target: T3, ARH3^D77A (Homo sapiens, UniProt Q9NX46, D77A); assay: Isothermal titration calorimetry (ITC) of ADPR binding to ARH3^D77A
T3 construct: His6 with PreScission protease cleavage site (N); made in house
T3 sequence (Q9NX46 1-363 D77A): T1 sequence (Q9NX46 1-363) with D77A
Description: as §1

[4] = target: T4, ARH3^D314A (Homo sapiens, UniProt Q9NX46, D314A); assay: Isothermal titration calorimetry (ITC) of ADPR binding to ARH3^D314A
T4 construct: His6 with PreScission protease cleavage site (N); made in house
T4 sequence (Q9NX46 1-363 D314A): T1 sequence (Q9NX46 1-363) with D314A
Description: as §1

[5] = ARH3^D77A, 5 mM Mg^2+, 25 °C, pH 7.5
[6] = ARH3^D314A, 5 mM Mg^2+, 25 °C, pH 7.5

Compound: O=C(O)CN(CCN(CC(=O)O)CC(=O)O)CC(=O)O [EDTA]
effect on PAR hydrolysis by ARH3 [1]: inhibit; also recorded: effectively suppresses PAR hydrolysis

Kd ([2]; 5 mM Ca^2+): 7.81 ± 0.51 µM
N (sites) ([2]; 5 mM Ca^2+): 1.18 ± 0.01 sites
ΔG ([2]; 5 mM Ca^2+): -6.96 kcal/M
ΔH ([2]; 5 mM Ca^2+): -5.71 kcal/M
−TΔS ([2]; 5 mM Ca^2+): -1.25 kcal/M
Kd ([2]; 5 mM EDTA (metal-free)): 80.7 ± 5.25 µM
N (sites) ([2]; 5 mM EDTA): 0.96 ± 0.08 sites
ΔG ([2]; 5 mM EDTA): -5.59 kcal/M
ΔH ([2]; 5 mM EDTA): -5.164 kcal/M
−TΔS ([2]; 5 mM EDTA): -0.42 kcal/M
Kd ([2]; 5 mM Mg^2+): 1.42 ± 0.07 µM
N (sites) ([2]; 5 mM Mg^2+): 1.12 ± 0.01 sites
ΔG ([2]; 5 mM Mg^2+): -7.98 kcal/M
ΔH ([2]; 5 mM Mg^2+): -9.29 kcal/M
−TΔS ([2]; 5 mM Mg^2+): 1.31 kcal/M
Kd ([2]; 5 mM Mn^2+): 0.83 ± 0.05 µM
N (sites) ([2]; 5 mM Mn^2+): 1.09 ± 0.01 sites
ΔG ([2]; 5 mM Mn^2+): -8.29 kcal/M
ΔH ([2]; 5 mM Mn^2+): -10.57 kcal/M
−TΔS ([2]; 5 mM Mn^2+): 2.28 kcal/M
reduction in ADPR-binding affinity with Ca^2+ compared with Mg^2+ ([2]; KD^Ca versus KD^Mg): about a sixfold reduction
increase in binding affinity with Mg^2+ versus metal-free enzyme (EDTA) ([2]; KD^Mg versus KD^EDTA): approximately 60 fold
increase in ADPR-binding affinity compared with ARH3^WT ([3]; ARH3^D77A versus ARH3^WT, Mg^2+): 23 fold
Kd [3, 5]: 0.06 ± 0.01 µM
N (sites) [3, 5]: 1.18 ± 0.01 sites
ΔG [3, 5]: -9.87 kcal/M
ΔH [3, 5]: -8.50 kcal/M
−TΔS [3, 5]: -1.37 kcal/M
decrease in ADPR-binding affinity compared with ARH3^WT ([4]; ARH3^D314A versus ARH3^WT, Mg^2+): 44 fold
Kd [4, 6]: 62.9 ± 2.9 µM
N (sites) [4, 6]: 0.96 ± 0.04 sites
ΔG [4, 6]: -5.74 kcal/M
ΔH [4, 6]: -10.36 kcal/M
−TΔS [4, 6]: 4.61 kcal/M
Compound: Nc1ncnc2c1ncn2[C@@H]1O[C@H](COP(=O)(O)OP(=O)(O)OC[C@H]2OC(O)[C@H](O)[C@@H]2O)[C@@H](O)[C@H]1O (stereo partly shown) [ADPR, ADP-ribose]

Compound: [Ca+2].[Cl-].[Cl-] [Ca^2+, CaCl2]
effect on PAR hydrolysis by ARH3 [1]: inhibit; also recorded: effectively suppresses PAR hydrolysis
Ca2+-dependent inhibition of ARH3 PAR hydrolysis activity ([1]; in the presence of Mg2+ and increasing concentrations of Ca2+, 5 mM Ca2+): sufficient to effectively inhibit ARH3 activity
